The results in this text go back to patent publication US20230398130A1, “METHODS AND COMPOSITIONS FOR DIFFERENTIATING STEM CELLS” (Massachusetts Institute of Technology, priority 2020, published 2023).

Experiment [1] deals with ENR-cultured 3D-embedded organoid. Briefly: 384 well-based 3D-embedded organoid screening (ENR, 6 days, FDA approved drug library, 10 μM): Cch-induced lysozyme secretion. The experiment is classed as cell-based, murine. An excerpt: Leveraging their experience in 2.5D culture organoid screening (Mead, et al., 2020 High-throughput organoid screening enables engineering of intestinal epithelial composition. bioRxiv 2020.04.27.063727; Example 2 and 5), Applicants optimized multiple parameters such as organoid number and density, Matrigel volume, and compound-induced secretion stimulation to detect secreted lysozyme from ENR-cultured 3D-embedded organoid. […] The scheme is shown in FIG. 31; briefly, (1) prepare small organoid fragments by mechanical disruption and culture in ENRCV media for 4 days to grow stem cell-rich organoid, (2) replace media to conventional organoid growth media (ENR) add compounds, and culture for 6 days in total, (3) measure Cch-induced lysozyme secretion and ATP abundance. Based on multiple condition examination results (see FIG. 32 as an example), Applicants concluded that 20 organoids/well and 7 μL Matrigel mixture/well is the reasonable culture condition for 384 well-based screening. Additionally, a Notch signaling inhibitor, DAPT, can be used as a positive control, and stimulating by carbachol helps broaden the window between negative and positive control samples (FIG. 32). Utilizing this newly established platform, Applicants performed 384 well-based high-throughput chemical compound screening, aiming for further identification of PC inducers. […] Applicants prepared duplicates for each sample to increase the reliability and chose a single dose point of drugs (10 μM) to execute the initial screening readily and efficiently while planning to analyze precise dose-responsiveness in the following validation step.
Applicants analyzed all the data by Python 3 as follows. Log 2 transformed lysozyme-derived fluorescent values were calculated; violin plots of negative and positive controls (FIG. 33) and histograms of samples were shown with respect to each assay plate (FIG. 34). […] To evaluate the compound effects, robust Z-scores were calculated based on the negative controls in each plate, and all results were concatenated. […]

The test system of the next experiment is organoid line. Briefly: Validation and dose optimization of the FDA library hits: lysozyme secretion normalized to ATP abundance. It is filed as cell-based. Conditions: for lysozyme secretion normalized to ATP: 80 nM, different organoid line; for lysozyme secretion compared with KPT-330: in vitro validation, 80-320 nM. The method, then:
Applicants next validated the initial screening results by the lysozyme secretion assays at four doses from 80 nM to 10 μM. To evaluate the cell-line dependent effect, Applicants utilized a different organoid line, derived from a different animal. DAPT-treated samples were prepared as positive controls, the same as in the screen. Applicants measured ATP abundance simultaneously as a surrogate of cell number and used it for normalizing lysozyme values. […] To further optimize the dose of each drug, Applicants treated with the three compounds at narrower dose range (80-320 nM) and KPT-330, previously identified PC inducer, for comparison.

Experiment [2] has as its system Paneth cells. Briefly: Flow cytometry of 3D-cultured intestinal organoids (ENR+CD, 6 days): Paneth cell fraction (lysozyme-positive, CD24-mid). It is filed as cell-based, murine. On the procedure:
Flow cytometry analysis (3D culture). ISC-enriched organoids cultured in 3D Matrigel with ENRCV media were passaged to 24-well plate in 3D Matrigel with ENRCV. At day zero, media were replaced to ENRCD with or without indicated compounds, and media were replaced every other day. […] Flow cytometry was performed using an LSR Fortessa (BD; Koch Institute Flow Cytometry Core at MIT). The data were analyzed using FlowJo v10 software.
Single live cells were selected by several gating strategies and Paneth cells were identified as lysozyme-high, CD24-mid, side scatter-high (SSC-high) (FIG. 27E). […] To evaluate whether the culture media supplements C and D may alter the effects of the 6 hits, Applicants also performed lysozyme assay in the canonical ENR culture condition in 3-D (because Paneth cells exist in an immature state within ENR, Applicants were unable to robustly quantify Paneth cell number via flow cytometry).
(§1) Flow cytometry. ISC-enriched organoids in 3D Matrigel culture were passaged to a 48-well plate and induced differentiation for 6 days by ENR+CD media containing DMSO or each drug indicated in the figures. DMSO- or drug-containing media were changed every other day. […] After vigorous pipetting and incubation at 37° C. for 15 min, the cell solution was diluted twice with basal media and centrifuged at 300 rcf for 3 min. […] The cell solution was centrifuged again at 300 rcf for 3 min at 4° C. to pellet the cells. […] Cells were centrifuged again for 3 min at 300 rcf and blocked with staining buffer (FACS buffer containing 0.5% Tween20 (Sigma, P2287)) for 15 min at RT in the dark. […] Flow cytometry was performed using an LSR Fortessa (BD; Koch Institute Flow Cytometry Core at MIT). Flow cytometry data were analyzed using FlowJo X v10.6.1 software.
Live Paneth cells were identified as LYZ-high, CD24-mid, side scatter-high (SSC-high) (FIG. 50F).
as §1, with “organoids in 3-D Matrigel culture” for “organoids in 3D Matrigel culture”, “to a 24- or 48-well plate” for “to a 48-well plate”

In experiment [3] the test system is Paneth cells. Briefly: Immunofluorescent imaging of organoids: LYZ+ cells per organoid area. The experiment is classed as cell-based, murine. The method, then:
Immunofluorescent imaging. For immunofluorescence staining of organoids, intestinal organoids in Matrigel were fixed with 4% paraformaldehyde, then transferred to centrifuge tube. After washing with PBS, the isolated organoids were permeabilized with 1% Triton X followed by incubation with blocking buffer (1% BSA+3% Donkey Serum+0.2% Triton X in PBS) at RT. The organoids were then stained with primary antibodies and fluorescent dye-labeled secondary antibodies as well as with DAPI. Slides were covered with […]® Mounting Media (VECTOR). The following primary and secondary antibodies were used for the staining: rabbit anti-Lysozyme (1:1000, Thermo Fisher Scientific), rat anti-E-cadherin (1:1000, Thermo Fisher Scientific), Alexa Fluor 488 and 568 secondary antibodies (1:1000, Invitrogen). Images were acquired with a confocal laser scanning microscope (Nikon Eclipse 90i). For the analysis of Lysozyme+ cells per organoid area, the number of counted Lysozyme+ cells were normalized to measured organoid surface area. Image J was used for the data analysis.

A further experiment concerns intestinal organoids. Briefly: Population RNA-sequencing of organoids. The experiment is classed as cell-based, murine. Conditions: ENR+CV, ENR+CD or ENR organoids. The method, then: Population RNA-sequencing. Population RNA-seq was performed using a derivative of the Smart-Seq2 protocol for single cells. In brief, organoid media was aspirated and RLT+BME (Qiagen) was added to each well, and plate shaken for 30 minutes to fully lyse. Lysate was aliquoted into 4 identical fractions and stored at −80° C. until reverse transcription. RNA lysate was thawed and cleaned with a 2.2×SPRI ratio using Agencourt RNAClean XP beads (Beckman Coulter, A63987). RNA-seq was performed on a bulk population of […] using Smart-Seq2 chemistry, starting with a 2.2×SPRI ratio cleanup. After oligo-dT priming, Maxima H Minus Reverse Transcriptase (ThermoFisher EP0753) was used to synthesize cDNA with an elongation step at 52° C. before PCR amplification (15 cycles for tissue, 18 cycles for sorted basal cells) using KAPA HiFi PCR Mastermix (Kapa Biosystems KK2602). Sequencing libraries were prepared using the Nextera XT DNA tagmentation kit (Illumina FC-131-1096) with 250 pg input for each sample. Libraries were pooled post-Nextera and cleaned using Agencourt AMPure SPRI beads with successive 0.7× and 0.8× ratio SPRIs and sequenced with an Illumina 75 Cycle NextSeq500/550v2 kit (Illumina FC-404-2005) with loading density at 2.2 pM, with paired end 35 cycle read structure. Samples were sequenced at an average read depth of 8.44 million reads per sample and a total of 96 samples.
Organoid samples were aligned to the Mm10 genome and transcriptome using STAR and RSEM. […] For module scoring with the in vivo Paneth and enteroendocrine cell-defining genes, Applicants used previously published gene sets and computed persample module scores through the Seurat package.

The next experiment has as its system lysozyme (LYZ). Briefly: Western blotting of lysozyme in 3D-cultured intestinal organoids. The experiment is classed as cell-based, murine. Conditions: organoids cultured 6 days in ENR+CV, ENR+CD or ENR. An excerpt: Western blotting. ISC-enriched organoids cultured in 3D Matrigel with ENRCV media were passaged to 24-well plate in 3D Matrigel with ENRCV. At day zero, media were replaced to ENR or ENRCD with or without indicated compounds, and media were replaced every other day. At day six, cells were harvested from Matrigel by mechanical disruption and suspended in basal media. Cell pellets were lysed with Pierce© IP lysis buffer (ThermoFisher, 87787) containing Halt™ Protease Inhibitor Cocktail, EDTA-Free (ThermoFisher, 87785) after 3-minute centrifuge at 300×g at 4° C. Cell extracts were resolved by NuPAGE© SDS-PAGE Gel system (ThermoFisher) and electroblotted onto polyvinylidene difluoride membranes using Criterion™ Blotter (Biorad). The membranes were blocked with 2% Blotting-Grade Blocker (Biorad, 1706404) in TBS-T (50 mM Tris-HCl, 150 mM NaCl, and 0.1% Tween 20, pH 8.0) and then probed with appropriate antibodies. Detection was performed using ECL Select™ Western Blotting Detection Reagent (Amersham, 45-000-999) and ImageQuant LAS4000 (GE Healthcare).
Western blotting. Organoid-containing gel was homogenized in basal medium and centrifuged at 300 rcf for 3 min. Organoid pellet was lysed with ice-cold Pierce IP Lysis Buffer (Thermo Fisher Scientific, #87787) containing Halt Protease Inhibitor Cocktail, EDTA-Free (Thermo Fisher Scientific, #87785) and incubated on ice for 20 min. The lysate was centrifuged at 17,000 rcf for 10 min, and the supernatant was combined with NuPAGE LDS Sample Buffer (Thermo Fisher Scientific, NP0007). Protein concentration was determined by Pierce 660 nm Protein Assay (Thermo Fisher Scientific, #22660) and normalized to the lowest concentration among each sample set. […] Chemiluminescent signals were detected by LAS4000 (GE Healthcare) using Amersham ECL Select Western Blotting Detection Reagent (GE Healthcare, #45-000-999), and total protein signals were obtained by Odyssey Imaging System (LI-COR Biosciences) using REVERT Total Protein Stain Kit (LI-COR Biosciences, #926-11010).

Entries after “also recorded” stand apart in the source; their conditions may differ.

Turning to `C=C1/C(=C\C=C2/CCC[C@]3(C)[C@@H]([C@H](C)/C=C/[C@@H](O)C4CC4)CC[C@@H]23)C[C@@H](O)C[C@@H]1O` [Calcipotriene], in experiment [1], the “effect on Cch-induced lysozyme secretion (hit identification)” value (“effect on Cch-induced lysozyme secretion” for short) was “identified as Paneth cell activators”. In the experiment with organoid line, the “lysozyme secretion normalized to ATP” value is reported as “effects were validated” and the “lysozyme secretion compared with KPT-330” value is “outperformed KPT-330”.

For `Nc1ncn([C@H]2C[C@H](O)[C@@H](CO)O2)c(=O)n1` [Decitabine, 5-aza-2′-deoxycytidine], in experiment [1], the “effect on Cch-induced lysozyme secretion” value is “identified as Paneth cell activators”. Further, in the experiment with organoid line, the “lysozyme secretion normalized to ATP” value is “effects were validated” and the “lysozyme secretion compared with KPT-330” value was “outperformed KPT-330”.

On to `NC(=O)/C(=C/n1cnc(-c2cc(C(F)(F)F)cc(C(F)(F)F)c2)n1)c1cncnc1` [KPT-8602], for which the “Paneth cell proportion in organoids” value in the experiment with Paneth cells [2] (160 nM KPT-8602, ENR+CD 6 days) is “statistically significant increases in Paneth cell representation; also recorded: increased the proportion of PC; also recorded: increasing the proportion of Paneth cells”. Moreover, the “proportion of Paneth cells (IF imaging)” value in the experiment with Paneth cells [3] (160 nM KPT-8602, ENR+CD 3 days) is given as “increasing the proportion of Paneth cells”. In the experiment on intestinal organoids, the “secretory cell identity (Paneth, goblet, EEC) from bulk transcripts” value is “increase secretory cells (Paneth, goblet, and EEC)”. In the experiment on lysozyme (LYZ), the “LYZ abundance per unit protein (Western blotting)” value is recorded as “appreciably increase LYZ abundance”.

In the case of `CCC(=C/[C@H](C)C/C=C/C(C)=C/[C@@H](C)C(=O)[C@@H](C)[C@H](O)[C@@H](C)C/C(C)=C/C(=O)O)/C=C/[C@@H]1OC(=O)C=C[C@@H]1C` [Leptomycin B], the “Paneth cell proportion in organoids” value with Paneth cells [2] (2 ng/mL Leptomycin B, ENR+CD 6 days) was “statistically significant increases in Paneth cell representation”; in the experiment with Paneth cells [2] (2 ng/mL Leptomycin B, ENR+CD 6 days, listed as leptomycin B), “increased the proportion of PC; also recorded: increasing the proportion of Paneth cells”. For the same molecule, the “proportion of Paneth cells (IF imaging)” value in the experiment with Paneth cells [3] (2 ng/mL Leptomycin B, ENR+CD 3 days) was “increasing the proportion of Paneth cells”. Further, the “LYZ abundance per unit protein (Western blotting)” value in the experiment with lysozyme (LYZ) is listed as “appreciably increase LYZ abundance”.

In the case of `Nc1nc2nc[nH]c2c(=S)[nH]1` [Thioguanine], in experiment [1], the “effect on Cch-induced lysozyme secretion” value was “identified as Paneth cell activators”. Moreover, in the experiment on organoid line, the “lysozyme secretion normalized to ATP” value is “effects were validated” and the “lysozyme secretion compared with KPT-330” value is “outperformed KPT-330”.
